Assay results: patent US10947271B2, “Antibacterial agents” (THE UNIVERSITY OF QUEENSLAND, priority 2014, dated 2021)

Key:
Format in all cases: cell-based
Details in all cases: 24 h incubation, visual reading
[1] = system: Streptococcus pneumoniae MDR ATCC 700677; test: MIC assay, S. pneumoniae MDR ATCC 700677
Method: (§1) Antimicrobial activity of compounds was tested against a number of bacterial strains, including Staphylococcus aureus (MRSA ATCC 43300, GISA NRS17, VISA NRS1, MRSA clinical isolate, daptomycin resistant clinical isolate), Streptococcus pneumoniae (MDR ATCC 700677), Enterococcus faecalis (VanA clinical isolate) and Enterococcus faecium (MDR Van A ATCC 51559).
(§2) All compounds were prepared to 160 μg/ml solution in water from a stock solution of 1 mM concentration.
(§3) The compounds, along with standard antibiotics were serially diluted twofold across the wells of 96-well non-binding surface plates (NBS, Corning). Standards ranged from 64 μg/ml to 0.03 μg/ml and compounds from 8 μg/ml to 0.003 μg/ml with final volumes of 50 μL per well. Gram positive bacteria were cultured in Muller Hinton broth (MHB) (Bacto laboratories, Cat. no. 211443) at 37° C. overnight. A sample of each culture was then diluted 40-fold in fresh MHB broth and incubated at 37° C. for 2-3 hrs. The resultant mid-log phase cultures were diluted to the final concentration of 5×10e5 CFU/mL, then 50 μL was added to each well of the compound-containing 96-well plates. All the plates were covered and incubated at 37° C. for 24 h. MICs were the lowest concentration showing no visible growth.
(§4) MICs were determined visually at 24 hr incubation and the MIC was defined as the lowest concentration with which no growth was visible after incubation. Both MIC and MBC were determined by visual inspection only.

[2] = system: Enterococcus faecium MDR Van A ATCC 51559; test: MIC assay, E. faecium MDR Van A ATCC 51559
Method: as §1, §2, §3, §4

[3] = system: Staphylococcus aureus MRSA ATCC 43300; test: MIC assay, S. aureus MRSA ATCC 43300
Method: as §1, §2, §3, §4

| Structure (SMILES) | Minimum Inhibitory Concentration (MIC) S. pneumoniae ATCC 700677 [1] | Minimum Inhibitory Concentration (MIC) E. faecium ATCC51559 [2] | Minimum Inhibitory Concentration (MIC) Staph. aureus ATCC43300 [3] |
| --- | --- | --- | --- |
| CNC(=O)C(CCCCNC(=O)C1NC(=O)C2NC(=O)C(NC(=O)C3NC(=O)C(CC(N)=O)NC(=O)C(NC(=O)C(CC(C)C)NC)C(O)c4ccc(c(Cl)c4)Oc4cc3cc(c4OC3OC(CO)C(O)C(O)C3OC3CC(C)(N)C(O)C(C)O3)Oc3ccc(cc3Cl)C2O)c2ccc(O)c(c2)-c2c(O)cc(O)cc21)NC(=O)C(CCCCN)NC(=O)C(CCCCNC(=O)CCCOc1ccccc1)NC(=O)CCCOc1ccccc1 (centres unmarked) [MCC_000506] | xxx (xxx = 0.1-<1) | x (x = >4) | xxx (xxx = 0.1-<1) |
| CNC(=O)[C@H](CCCCNC(=O)[C@H]1NC(=O)[C@H]2NC(=O)[C@H](NC(=O)[C@@H]3NC(=O)[C@H](CC(N)=O)NC(=O)[C@H](NC(=O)[C@@H](CC(C)C)NC)[C@H](O)c4ccc(c(Cl)c4)Oc4cc3cc(c4O[C@@H]3O[C@H](CO)[C@@H](O)[C@H](O)[C@H]3O[C@H]3C[C@](C)(N)[C@H](O)[C@H](C)O3)Oc3ccc(cc3Cl)[C@H]2O)c2ccc(O)c(c2)-c2c(O)cc(O)cc21)NC(=O)[C@H](CCCCN)NC(=O)[C@H](CCCCN)NC(=O)CNC(=O)c1ccc(Oc2ccccc2)cc1 [MCC_000647] | xxx (xxx = 0.1-<1) | x (x = >4) | xxx (xxx = 0.1-<1) |
| CCCCCCCC(=O)N[C@@H](CCCCN)C(=O)NCCNC(=O)[C@H]1NC(=O)[C@H]2NC(=O)[C@H](NC(=O)[C@@H]3NC(=O)[C@H](CC(N)=O)NC(=O)[C@H](NC(=O)[C@@H](CC(C)C)NC)[C@H](O)c4ccc(c(Cl)c4)Oc4cc3cc(c4O[C@@H]3O[C@H](CO)[C@@H](O)[C@H](O)[C@H]3O[C@H]3C[C@](C)(N)[C@H](O)[C@H](C)O3)Oc3ccc(cc3Cl)[C@H]2O)c2ccc(O)c(c2)-c2c(O)cc(O)cc21 [MCC_005183] | xxx (xxx = 0.1-<1) | x (x = >4) | xxx (xxx = 0.1-<1) |
| CNC(=O)C(CCCCNC(=O)C1NC(=O)C2NC(=O)C(NC(=O)C3NC(=O)C(CC(N)=O)NC(=O)C(NC(=O)C(CC(C)C)NC)C(O)c4ccc(c(Cl)c4)Oc4cc3cc(c4OC3OC(CO)C(O)C(O)C3OC3CC(C)(N)C(O)C(C)O3)Oc3ccc(cc3Cl)C2O)c2ccc(O)c(c2)-c2c(O)cc(O)cc21)NC(=O)C(CCCCN)NC(=O)C(CCCCN)NC(=O)c1ccc(OCc2ccccc2)cc1 (centres unmarked) [MCC_000518] | xxx (xxx = 0.1-<1) | x (x = >4) | xxx (xxx = 0.1-<1) |
| CCCCCCCCCC(=O)N[C@@H](CCCCN1CCOCC1)C(=O)N[C@@H](CCCCNC(=O)[C@H]1NC(=O)[C@H]2NC(=O)[C@H](NC(=O)[C@@H]3NC(=O)[C@H](CC(N)=O)NC(=O)[C@H](NC(=O)[C@@H](CC(C)C)NC)[C@H](O)c4ccc(c(Cl)c4)Oc4cc3cc(c4O[C@@H]3O[C@H](CO)[C@@H](O)[C@H](O)[C@H]3O[C@H]3C[C@](C)(N)[C@H](O)[C@H](C)O3)Oc3ccc(cc3Cl)[C@H]2O)c2ccc(O)c(c2)-c2c(O)cc(O)cc21)C(=O)O [MCC_007379] | xx (xx = 1-4) | x (x = >4) | xx (xx = 1-4) |
| CCCCCCCCCCCCCC(=O)N[C@@H](CCCCN)C(=O)N[C@@H](CCCCN)C(=O)N[C@@H](CCCCNC(=O)[C@H]1NC(=O)[C@H]2NC(=O)[C@H](NC(=O)[C@@H]3NC(=O)[C@H](CC(N)=O)NC(=O)[C@H](NC(=O)[C@@H](CC(C)C)NC)[C@H](O)c4ccc(c(Cl)c4)Oc4cc3cc(c4O[C@@H]3O[C@H](CO)[C@@H](O)[C@H](O)[C@H]3O[C@H]3C[C@](C)(N)[C@H](O)[C@H](C)O3)Oc3ccc(cc3Cl)[C@H]2O)c2ccc(O)c(c2)-c2c(O)cc(O)cc21)C(N)=O [MCC_000974] | xxxxx (xxxxx = <0.01) | xxx (xxx = 0.1-<1) | xxxxx (xxxxx = <0.01) |
| CCCCC=CCCCCCCCC(=O)NC(CCCCN)C(=O)NC(CCCCN)C(=O)NC(CCCCNC(=O)C1NC(=O)C2NC(=O)C(NC(=O)C3NC(=O)C(CC(N)=O)NC(=O)C(NC(=O)C(CC(C)C)NC)C(O)c4ccc(c(Cl)c4)Oc4cc3cc(c4OC3OC(CO)C(O)C(O)C3OC3CC(C)(N)C(O)C(C)O3)Oc3ccc(cc3Cl)C2O)c2ccc(O)c(c2)-c2c(O)cc(O)cc21)C(=O)NC (centres unmarked) [MCC_000498] | xx (xx = 1-4) | x (x = >4) | xx (xx = 1-4) |
| CNC(=O)C(CCCCNC(=O)C1NC(=O)C2NC(=O)C(NC(=O)C3NC(=O)C(CC(N)=O)NC(=O)C(NC(=O)C(CC(C)C)NC)C(O)c4ccc(c(Cl)c4)Oc4cc3cc(c4OC3OC(CO)C(O)C(O)C3OC3CC(C)(N)C(O)C(C)O3)Oc3ccc(cc3Cl)C2O)c2ccc(O)c(c2)-c2c(O)cc(O)cc21)NC(=O)C(CCCCN)NC(=O)C(CCCCN)NC(=O)CCCCCCCCCCCc1ccccc1 (centres unmarked) [MCC_000511] | xxxxx (xxxxx = <0.01) | xxx (xxx = 0.1-<1) | xxxxx (xxxxx = <0.01) |
| CCCCCCCCCCC(=O)N[C@@H](CCCCN)C(=O)N[C@@H](CCCCN)C(=O)NCc1cccc(CNC(=O)[C@H]2NC(=O)[C@H]3NC(=O)[C@H](NC(=O)[C@@H]4NC(=O)[C@H](CC(N)=O)NC(=O)[C@H](NC(=O)[C@@H](CC(C)C)NC)[C@H](O)c5ccc(c(Cl)c5)Oc5cc4cc(c5O[C@@H]4O[C@H](CO)[C@@H](O)[C@H](O)[C@H]4O[C@H]4C[C@](C)(N)[C@H](O)[C@H](C)O4)Oc4ccc(cc4Cl)[C@H]3O)c3ccc(O)c(c3)-c3c(O)cc(O)cc32)c1 [MCC_005044] | xxxxx (xxxxx = <0.01) | xxx (xxx = 0.1-<1) | xxxxx (xxxxx = <0.01) |
| CCCCCCCCC(=O)NC(CCCC[N+](C)(C)C)C(=O)NCCCNC(=O)C1NC(=O)C2NC(=O)C(NC(=O)C3NC(=O)C(CC(N)=O)NC(=O)C(NC(=O)C(CC(C)C)NC)C(O)c4ccc(c(Cl)c4)Oc4cc3cc(c4OC3OC(CO)C(O)C(O)C3OC3CC(C)(N)C(O)C(C)O3)Oc3ccc(cc3Cl)C2O)c2ccc(O)c(c2)-c2c(O)cc(O)cc21 (centres unmarked) [MCC_007388] | xx (xx = 1-4) | x (x = >4) | xxx (xxx = 0.1-<1) |
| CNC(=O)[C@H](CCCCNC(=O)[C@H]1NC(=O)[C@H]2NC(=O)[C@H](NC(=O)[C@@H]3NC(=O)[C@H](CC(N)=O)NC(=O)[C@H](NC(=O)[C@@H](CC(C)C)NC)[C@H](O)c4ccc(c(Cl)c4)Oc4cc3cc(c4O[C@@H]3O[C@H](CO)[C@@H](O)[C@H](O)[C@H]3O)Oc3ccc(cc3Cl)[C@H]2O)c2ccc(O)c(c2)-c2c(O)cc(O)cc21)NC(=O)[C@H](CCCCN)NC(=O)[C@H](CCCCN)NC(=O)[C@H](CCCCNC(=O)CCCOc1ccccc1)NC(=O)CCCOc1ccccc1 [MCC_000604] | xx (xx = 1-4) | x (x = >4) | xx (xx = 1-4) |
| CCCCCCCCC(=O)NC(CCCCN)C(=O)NC(CCCCN)C(=O)NC(CCCCNC(=O)C1NC(=O)C2NC(=O)C(NC(=O)C3NC(=O)C(CC(N)=O)NC(=O)C(NC(=O)C(CC(C)C)NC)C(O)c4ccc(c(Cl)c4)Oc4cc3cc(c4OC3OC(CO)C(O)C(O)C3OC3CC(C)(N)C(O)C(C)O3)Oc3ccc(cc3Cl)C2O)c2ccc(O)c(c2)-c2c(O)cc(O)cc21)C(=O)NC (centres unmarked) [MCC_000491] | xxx (xxx = 0.1-<1) | x (x = >4) | xxx (xxx = 0.1-<1) |
| CNC(=O)C(CCCCNC(=O)C1NC(=O)C2NC(=O)C(NC(=O)C3NC(=O)C(CC(N)=O)NC(=O)C(NC(=O)C(CC(C)C)NC)C(O)c4ccc(c(Cl)c4)Oc4cc3cc(c4OC3OC(CO)C(O)C(O)C3OC3CC(C)(N)C(O)C(C)O3)Oc3ccc(cc3Cl)C2O)c2ccc(O)c(c2)-c2c(O)cc(O)cc21)NC(=O)C(CCCCN)NC(=O)C(CCCCNC(=O)CCCCCc1ccccc1)NC(=O)CCCCCc1ccccc1 (centres unmarked) [MCC_000508] | xxxxx (xxxxx = <0.01) | xx (xx = 1-4) | xxxxx (xxxxx = <0.01) |
| CCCCCCCCCCCCCC(=O)NCC(=O)N[C@@H](CO)C(=O)N[C@@H](CCCCN)C(=O)N[C@@H](CCCCN)C(=O)N[C@@H](CCCCN)C(=O)N[C@@H](CCCCNC(=O)[C@H]1NC(=O)[C@H]2NC(=O)[C@H](NC(=O)[C@@H]3NC(=O)[C@H](CC(N)=O)NC(=O)[C@H](NC(=O)[C@@H](CC(C)C)NC)[C@H](O)c4ccc(c(Cl)c4)Oc4cc3cc(c4O[C@@H]3O[C@H](CO)[C@@H](O)[C@H](O)[C@H]3O[C@H]3C[C@](C)(N)[C@H](O)[C@H](C)O3)Oc3ccc(cc3Cl)[C@H]2O)c2ccc(O)c(c2)-c2c(O)cc(O)cc21)C(=O)O [MCC_000380] | xxxxx (xxxxx = <0.01) | – | xxxx (xxxx = 0.01-<0.1) |
